According to PubChem BioAssay AID256 (DTP/NCI, 2004):
Several values for one entry are separate records, joined by “and”; a condition that tells them apart may be missing. Equal values may be shown once. Toxic doses and inconclusive results are not listed.

System: CD2F1 mice, L1210 leukemia ip, survival T/C
Assay: NCI In Vivo Anticancer Drug Screen. Data for tumor model L1210 Leukemia (intraperitoneal) in CD2F1 (CDF1) mice
Settings: higher = longer survival
Outline: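 Ratio T/C, where T is the treated-group value and C the vehicle-dosed control value, from mice implanted with a transplantable tumor.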

[1] = endpoint: mean survival time, dose: 100.0 mg/kg/injection, schedule: Q01DX001 (ip), vehicle: saline with Tween-80
[2] = endpoint: mean survival time, dose: 200.0 mg/kg/injection, schedule: Q01DX001 (ip), vehicle: saline with Tween-80
[3] = endpoint: mean survival time, dose: 400.0 mg/kg/injection, schedule: Q01DX001 (ip), vehicle: saline with Tween-80
[4] = endpoint: mean survival time, dose: 12.5 mg/kg/injection, schedule: Q01DX009 (ip), vehicle: other
[5] = endpoint: mean survival time, dose: 25.0 mg/kg/injection, schedule: Q01DX009 (ip), vehicle: other
[6] = endpoint: mean survival time, dose: 50.0 mg/kg/injection, schedule: Q01DX009 (ip), vehicle: other
[7] = endpoint: mean survival time, dose: 100.0 mg/kg/injection, schedule: Q01DX009 (ip), vehicle: other
[8] = endpoint: mean survival time, dose: 200.0 mg/kg/injection, schedule: Q01DX009 (ip), vehicle: other
[9] = endpoint: mean survival time, dose: 100.0 mg/kg/injection, schedule: Q01DX009 (ip), vehicle: saline with Tween-80
[10] = endpoint: mean survival time, dose: 200.0 mg/kg/injection, schedule: Q01DX009 (ip), vehicle: saline with Tween-80
[11] = endpoint: mean survival time, dose: 100.0 mg/kg/injection, schedule: Q04DX003 (ip), vehicle: saline with Tween-80
[12] = endpoint: mean survival time, dose: 200.0 mg/kg/injection, schedule: Q04DX003 (ip), vehicle: saline with Tween-80
[13] = endpoint: mean survival time, dose: 400.0 mg/kg/injection, schedule: Q04DX003 (ip), vehicle: saline with Tween-80

O=NNc1cccc(NN=O)n1
T/C (endpoint: median survival time, dose: 6.25 mg/kg/injection, schedule: Q01DX005 (ip), vehicle: saline): 115 % of control and 108 % of control | T/C (endpoint: median survival time, dose: 12.5 mg/kg/injection, schedule: Q01DX005 (ip), vehicle: saline): 121 % of control | T/C (endpoint: median survival time, dose: 29.0 mg/kg/injection, schedule: Q01DX005 (ip), vehicle: saline): 153 % of control | T/C (endpoint: median survival time, dose: 44.0 mg/kg/injection, schedule: Q01DX005 (ip), vehicle: saline): 166 % of control | T/C (endpoint: median survival time, dose: 100.0 mg/kg/injection, schedule: Q01DX005 (ip), vehicle: saline): 122 % of control and 91 % of control and 98 % of control

CCCOC(=O)c1ccc(N)cc1
T/C [1]: 102 % of control | T/C [2]: 104 % of control | T/C [3]: 103 % of control

C=C1C(O)C2(O)OCC34C(CC5C(C)=CC(=O)C(O)C5(C)C23)OC(=O)C(OC(=O)C(C)(O)CC)C14 (stereo not drawn)
T/C (endpoint: mean survival time, dose: 0.25 mg/kg/injection, schedule: Q01DX009 (ip), vehicle: saline + alcohol): 98 % of control | T/C (endpoint: mean survival time, dose: 0.5 mg/kg/injection, schedule: Q01DX009 (ip), vehicle: saline + alcohol): 100 % of control | T/C (endpoint: mean survival time, dose: 1.0 mg/kg/injection, schedule: Q01DX009 (ip), vehicle: saline + alcohol): 102 % of control | T/C (endpoint: mean survival time, dose: 2.0 mg/kg/injection, schedule: Q01DX009 (ip), vehicle: saline + alcohol): 90 % of control

CCOC(=O)N1Cc2cc3ccc(OC)cc3nc2C1
T/C [1]: 98 % of control | T/C [2]: 101 % of control | T/C [3]: 103 % of control

COc1ccc(C(=O)NNC(=O)c2ccc(OC)c(OC)c2)cc1OC
T/C [4]: 92 % of control | T/C [5]: 93 % of control | T/C [6]: 92 % of control | T/C [7]: 108 % of control | T/C [8]: 107 % of control

O=C(O)CCc1cc([N+](=O)[O-])c(O)c([N+](=O)[O-])c1
T/C [9]: 94 % of control | T/C [10]: 89 % of control

Nc1ccc(I)cc1F
T/C [11]: 100 % of control | T/C [12]: 104 % of control | T/C [13]: 100 % of control

COC(=O)[C@H]1[C@H]2C[C@@H]3c4[nH]c5cc(OC)ccc5c4CCN3C[C@H]2C[C@@H](OC(=O)/C=C/c2cc(OC)c(OC)c(OC)c2)[C@@H]1OC
T/C (endpoint: mean survival time, dose: 0.63 mg/kg/injection, schedule: Q01DX009 (ip), vehicle: saline sonified): 86 % of control | T/C (endpoint: mean survival time, dose: 1.25 mg/kg/injection, schedule: Q01DX009 (ip), vehicle: saline sonified): 96 % of control | T/C (endpoint: mean survival time, dose: 2.5 mg/kg/injection, schedule: Q01DX009 (ip), vehicle: saline sonified): 90 % of control | T/C (endpoint: mean survival time, dose: 5.0 mg/kg/injection, schedule: Q04DX003 (ip), vehicle: saline with Tween-80): 95 % of control | T/C (endpoint: mean survival time, dose: 10.0 mg/kg/injection, schedule: Q04DX003 (ip), vehicle: saline with Tween-80): 101 % of control | T/C (endpoint: mean survival time, dose: 20.0 mg/kg/injection, schedule: Q04DX003 (ip), vehicle: saline with Tween-80): 112 % of control

Cn1c(C(=O)c2ccncc2)cc2ccccc21
T/C [1]: 103 % of control | T/C (endpoint: mean survival time, dose: 100.0 mg/kg/injection, schedule: Q04DX002 (ip), vehicle: saline with Tween-80): 100 % of control | T/C [2]: 103 % of control | T/C (endpoint: mean survival time, dose: 200.0 mg/kg/injection, schedule: Q04DX002 (ip), vehicle: saline with Tween-80): 100 % of control | T/C [3]: 103 % of control | T/C (endpoint: mean survival time, dose: 400.0 mg/kg/injection, schedule: Q04DX002 (ip), vehicle: saline with Tween-80): 95 % of control

COc1ccc2ccccc2c1C(=O)CCCc1ccccc1
T/C (endpoint: mean survival time, dose: 12.5 mg/kg/injection, schedule: Q01DX009 (ip), vehicle: water): 97 % of control | T/C (endpoint: mean survival time, dose: 25.0 mg/kg/injection, schedule: Q01DX009 (ip), vehicle: water): 96 % of control | T/C (endpoint: mean survival time, dose: 50.0 mg/kg/injection, schedule: Q01DX009 (ip), vehicle: water): 97 % of control | T/C (endpoint: mean survival time, dose: 100.0 mg/kg/injection, schedule: Q01DX009 (ip), vehicle: water): 96 % of control | T/C (endpoint: mean survival time, dose: 200.0 mg/kg/injection, schedule: Q01DX009 (ip), vehicle: water): 96 % of control

COc1ccc(S(=O)[O-])cc1.C[c-]1[c-][c-][c-][c-]1.[C-]#[O+].[C-]#[O+].[Fe+6]
T/C (endpoint: mean survival time, dose: 6.25 mg/kg/injection, schedule: Q04DX002 (ip), vehicle: other): 95 % of control | T/C (endpoint: mean survival time, dose: 12.5 mg/kg/injection, schedule: Q04DX002 (ip), vehicle: other): 114 % of control | T/C (endpoint: mean survival time, dose: 25.0 mg/kg/injection, schedule: Q04DX002 (ip), vehicle: other): 100 % of control

[NH-]C(CCC(N)=O)C(=O)O.[NH-]C(CCC(N)=O)C(=O)O.[Zn+2] (stereo not drawn)
T/C (endpoint: median survival time, dose: 6.25 mg/kg/injection, schedule: Q01DX009 (ip), vehicle: saline with Tween-80): 102 % of control | T/C (endpoint: median survival time, dose: 12.5 mg/kg/injection, schedule: Q01DX009 (ip), vehicle: saline with Tween-80): 101 % of control | T/C (endpoint: median survival time, dose: 25.0 mg/kg/injection, schedule: Q01DX009 (ip), vehicle: saline with Tween-80): 96 % of control | T/C (endpoint: median survival time, dose: 50.0 mg/kg/injection, schedule: Q01DX009 (ip), vehicle: saline with Tween-80): 101 % of control

CCN(CC)CCOCCO
T/C (endpoint: mean survival time, dose: 100.0 mg/kg/injection, schedule: Q01DX009 (ip), vehicle: saline): 102 % of control | T/C (endpoint: mean survival time, dose: 200.0 mg/kg/injection, schedule: Q01DX009 (ip), vehicle: saline): 96 % of control

COC1OC(COS(=O)(=O)c2ccc(C)cc2)C(SC#N)C1OS(=O)(=O)c1ccc(C)cc1 (stereo not drawn)
T/C (endpoint: mean survival time, dose: 50.0 mg/kg/injection, schedule: Q01DX001 (ip), vehicle: saline): 91 % of control | T/C (endpoint: mean survival time, dose: 100.0 mg/kg/injection, schedule: Q01DX001 (ip), vehicle: saline): 89 % of control | T/C (endpoint: mean survival time, dose: 200.0 mg/kg/injection, schedule: Q01DX001 (ip), vehicle: saline): 95 % of control | T/C (endpoint: mean survival time, dose: 400.0 mg/kg/injection, schedule: Q01DX001 (ip), vehicle: saline): 95 % of control

CCOP(=O)(OCC)C1=C(P(=O)(OCC)OCC)C(F)(F)C1(F)F
T/C (endpoint: mean survival time, dose: 9.5 mg/kg/injection, schedule: Q01DX001 (ip), vehicle: other): 97 % of control | T/C (endpoint: mean survival time, dose: 19.0 mg/kg/injection, schedule: Q01DX001 (ip), vehicle: other): 97 % of control | T/C (endpoint: mean survival time, dose: 38.0 mg/kg/injection, schedule: Q01DX001 (ip), vehicle: other): 91 % of control

O=C1NCCN1c1ccccc1[N+](=O)[O-]
T/C [4]: 96 % of control | T/C [5]: 91 % of control | T/C [6]: 96 % of control | T/C [7]: 108 % of control | T/C [8]: 101 % of control

Cc1[nH]c2cc([N+](=O)[O-])ccc2c1[N+](=O)[O-]
T/C (endpoint: mean survival time, dose: 75.0 mg/kg/injection, schedule: Q01DX001 (ip), vehicle: saline): 97 % of control and 108 % of control | T/C (endpoint: mean survival time, dose: 150.0 mg/kg/injection, schedule: Q01DX001 (ip), vehicle: saline): 103 % of control and 100 % of control | T/C (endpoint: mean survival time, dose: 300.0 mg/kg/injection, schedule: Q01DX001 (ip), vehicle: saline): 93 % of control

COC(=O)C1(C(=O)OC)CC1C(=O)c1ccccc1 (stereo not drawn)
T/C [11]: 98 % of control | T/C [12]: 98 % of control | T/C [13]: 95 % of control

CC1C2C=CC1C(c1c3ccc(=O)cc-3oc3cc(O)ccc13)C2C(=O)O (stereo not drawn)
T/C [11]: 103 % of control | T/C [12]: 97 % of control | T/C [13]: 111 % of control

[N-]=[N+]=[N-]
T/C (endpoint: median survival time, dose: 0.75 mg/kg/injection, schedule: Q01DX009 (ip), vehicle: saline): 101 % of control | T/C (endpoint: median survival time, dose: 1.5 mg/kg/injection, schedule: Q01DX009 (ip), vehicle: saline): 101 % of control | T/C (endpoint: median survival time, dose: 3.0 mg/kg/injection, schedule: Q01DX009 (ip), vehicle: saline): 93 % of control | T/C (endpoint: median survival time, dose: 6.0 mg/kg/injection, schedule: Q01DX009 (ip), vehicle: saline): 103 % of control | T/C (endpoint: median survival time, dose: 12.0 mg/kg/injection, schedule: Q01DX009 (ip), vehicle: saline): 92 % of control

CCCCCCCCCCCCCC[N+](C)(C)CC#CC[N+](C)(C)CCCCCCCCCCCCCC
T/C (endpoint: mean survival time, dose: 25.0 mg/kg/injection, schedule: Q04DX002 (ip), vehicle: saline with Tween-80): 104 % of control | T/C (endpoint: mean survival time, dose: 50.0 mg/kg/injection, schedule: Q04DX002 (ip), vehicle: saline with Tween-80): 89 % of control

CC(=O)C1CCC2C3=CC=C4CC(OC(=O)c5ccccc5)CCC4(C)C3CCC12C (stereo not drawn)
T/C [11]: 101 % of control | T/C [12]: 98 % of control | T/C [13]: 102 % of control

COC(=O)C1(C)CCCC2(C)C1CCC13OC(=O)C(C(C)C)(CC21)C3O (stereo not drawn)
T/C [9]: 94 % of control | T/C [10]: 88 % of control | T/C (endpoint: mean survival time, dose: 400.0 mg/kg/injection, schedule: Q01DX009 (ip), vehicle: saline with Tween-80): 92 % of control

C=C(Br)CNCCCCCC
T/C (endpoint: mean survival time, dose: 12.5 mg/kg/injection, schedule: Q04DX003 (ip), vehicle: Klucel (hydroxypropylcellulose) (HPC)): 97 % of control | T/C (endpoint: mean survival time, dose: 25.0 mg/kg/injection, schedule: Q04DX003 (ip), vehicle: Klucel (hydroxypropylcellulose) (HPC)): 100 % of control | T/C (endpoint: mean survival time, dose: 50.0 mg/kg/injection, schedule: Q04DX003 (ip), vehicle: Klucel (hydroxypropylcellulose) (HPC)): 94 % of control
